According to US12187717B2, “Compound and use thereof in treating autoimmune diseases” (PARENCHYMA BIOTECH INC., priority 2022, dated 2025):

How the values were obtained:
[1] = pH-metric solubility and logP (SIRIUS T3); format: physicochemical; conditions: pH-metric results, SIRIUS T3
Method: After dissolving Compound 6 in ethanol, the solubility was measured and analyzed using a SIRIUS T3 machine.

CYP3A4 = CYP3A4 (Homo sapiens, UniProt P08684); conditions: 2 days, 10 μM
Method: Live human hepatocyte cell lines (Corning, Cat No. 454551) were collected using a plating medium, seeded on a 24-well plate so that a cell density thereof was 0.4×10^6 cells/well, and cultured for 2 to 4 hours. After replacing the plating medium with a hepatocyte culture medium, the hepatocytes were cultured for 24 hours. After culturing for 24 hours, hepatocytes were treated with Compound 6 at 1, 5, 25 µM. The medium containing the compound was changed every 24 hours for 2 days. The cultured cells were recovered to prepare mRNA samples. mRNA was extracted from the recovered cells by a phenol-chloroform sedimentation method using TRIZOL reagent (Invitrogen, Cat No. 15596018). From the isolated RNA, cDNA was synthesized by reverse transcription, followed by measuring drug metabolizing enzymes CYP1A2, CYP2C9, CYP2C19, CYP2B6, and CYP3A4 through real-time PCR analysis using the Quant Studio™ 7 Flex Real-Time PCR System (Applied Biosystems, CA). Relative values of the enzyme expression levels were compared by the ΔΔct method using GAPDH as a control enzyme. Herein, one (1) fold was set using the control. Results are expressed as % of control compared to control sample.

CYP2D6 = CYP2D6 (Homo sapiens, UniProt P10635); conditions: 2 days, 10 μM
CYP2D6, sequence (P10635 whole entry): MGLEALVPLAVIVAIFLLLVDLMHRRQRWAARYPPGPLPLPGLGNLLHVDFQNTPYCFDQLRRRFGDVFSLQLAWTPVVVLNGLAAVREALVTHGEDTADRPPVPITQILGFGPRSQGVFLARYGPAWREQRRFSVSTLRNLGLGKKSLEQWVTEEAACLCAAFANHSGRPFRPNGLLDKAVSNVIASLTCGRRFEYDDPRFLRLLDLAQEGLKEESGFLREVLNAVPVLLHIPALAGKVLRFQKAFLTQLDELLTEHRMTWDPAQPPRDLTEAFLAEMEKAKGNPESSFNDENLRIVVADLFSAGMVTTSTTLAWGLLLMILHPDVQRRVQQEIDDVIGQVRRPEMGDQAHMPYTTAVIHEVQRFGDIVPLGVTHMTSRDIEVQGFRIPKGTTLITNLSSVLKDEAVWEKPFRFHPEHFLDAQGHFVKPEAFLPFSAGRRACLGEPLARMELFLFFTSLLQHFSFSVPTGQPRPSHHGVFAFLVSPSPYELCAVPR

CYP2C19 = CYP2C19 (Homo sapiens, UniProt P33261); assay: CYP isoenzyme activity; format: in vitro ADME; conditions: 10 μM
CYP2C19, sequence (P33261 whole entry): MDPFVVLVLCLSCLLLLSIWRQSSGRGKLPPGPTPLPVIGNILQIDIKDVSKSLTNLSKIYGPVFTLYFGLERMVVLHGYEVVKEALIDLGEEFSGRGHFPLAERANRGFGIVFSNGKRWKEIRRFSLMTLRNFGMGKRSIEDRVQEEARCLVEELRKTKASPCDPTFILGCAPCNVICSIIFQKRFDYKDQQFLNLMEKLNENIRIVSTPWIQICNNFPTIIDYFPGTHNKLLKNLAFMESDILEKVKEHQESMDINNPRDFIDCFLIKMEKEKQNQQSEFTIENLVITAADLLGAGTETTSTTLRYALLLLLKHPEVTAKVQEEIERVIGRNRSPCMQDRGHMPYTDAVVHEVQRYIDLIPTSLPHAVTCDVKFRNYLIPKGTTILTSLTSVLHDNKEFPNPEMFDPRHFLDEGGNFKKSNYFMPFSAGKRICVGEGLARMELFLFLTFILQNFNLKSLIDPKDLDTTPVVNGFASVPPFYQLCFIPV

CYP2C9 = CYP2C9 (Homo sapiens, UniProt P11712); assay: CYP isoenzyme activity; format: in vitro ADME; conditions: 10 μM
CYP2C9, sequence (P11712 whole entry): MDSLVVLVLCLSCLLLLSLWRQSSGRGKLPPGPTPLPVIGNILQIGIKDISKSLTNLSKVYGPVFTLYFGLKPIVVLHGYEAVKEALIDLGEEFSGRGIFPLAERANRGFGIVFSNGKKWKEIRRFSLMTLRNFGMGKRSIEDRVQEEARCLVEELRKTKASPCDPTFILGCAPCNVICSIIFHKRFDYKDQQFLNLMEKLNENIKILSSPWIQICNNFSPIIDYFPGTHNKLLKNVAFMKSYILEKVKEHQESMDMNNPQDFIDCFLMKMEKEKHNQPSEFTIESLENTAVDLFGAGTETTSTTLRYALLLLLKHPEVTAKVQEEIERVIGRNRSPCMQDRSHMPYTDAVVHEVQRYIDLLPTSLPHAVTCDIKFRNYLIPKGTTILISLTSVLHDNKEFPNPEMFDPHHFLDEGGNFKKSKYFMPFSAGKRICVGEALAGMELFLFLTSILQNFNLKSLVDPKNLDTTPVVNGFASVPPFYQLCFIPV

CYP1A2 = biological target: T1, CYP1A2 (Homo sapiens, UniProt P05177); assay: CYP isoenzyme activity; format: in vitro ADME; conditions: 10 μM
T1 sequence (P05177 1-516): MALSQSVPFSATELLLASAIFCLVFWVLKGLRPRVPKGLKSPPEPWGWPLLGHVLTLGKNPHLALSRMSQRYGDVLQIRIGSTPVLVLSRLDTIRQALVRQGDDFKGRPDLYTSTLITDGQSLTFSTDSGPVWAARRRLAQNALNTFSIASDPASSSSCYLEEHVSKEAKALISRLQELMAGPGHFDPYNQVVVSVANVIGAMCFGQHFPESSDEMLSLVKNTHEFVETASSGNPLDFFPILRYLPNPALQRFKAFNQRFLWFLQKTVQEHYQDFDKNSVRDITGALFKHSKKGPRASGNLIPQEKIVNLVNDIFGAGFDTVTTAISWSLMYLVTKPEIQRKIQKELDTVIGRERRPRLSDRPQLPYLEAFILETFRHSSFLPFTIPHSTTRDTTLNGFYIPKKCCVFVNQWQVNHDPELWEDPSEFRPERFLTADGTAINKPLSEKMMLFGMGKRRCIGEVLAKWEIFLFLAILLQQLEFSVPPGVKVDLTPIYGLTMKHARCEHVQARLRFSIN

[2] = Pharmacokinetic parameters after oral or intravenous administration; format: in vivo; conditions: rats
Method: For rats, an oral administration group was fasted for 16 hours, and an intravenous administration group was subjected to intravenous administration with 10 mL/kg of solution prepared by completely dissolving Compound 6 in an ethanol-Cremophor EL mixture corresponding to 7.5% (v/v) of the administered dose, and then diluting in phosphate buffered saline so as to be the final ethanol:Cremophor EL:phosphate buffered saline (0.375:0.375:9.25, v/v/v), without fasting, at the dose concentration listed in Table 3. The oral administration group was supplied with food about 4 hours after administration. Blood collection was performed on the intravenous administration group after 0.083, 0.5, 1, 2, 4, 8, 24 hours from the administration and on the oral administration group after 0.5, 1, 2, 4, 8, 12, 24 hours from the administration, and plasma was recovered using centrifugation. In the recovered plasma, the drug concentration in the plasma was measured using UHPLC-MS/MS method.

[3] = rat, plasma, Intravenous (IV), 1 mg/kg
[4] = rat, plasma, Oral (PO), 10 mg/kg
[5] = rat, plasma, Oral (PO), 100 mg/kg
[6] = Oral (PO), 10 mg/kg (reference dose, dose ratio 1)
[7] = Oral (PO), 100 mg/kg relative to 10 mg/kg (dose ratio 10.0)

CYP3A4, sequence (P08684 whole entry): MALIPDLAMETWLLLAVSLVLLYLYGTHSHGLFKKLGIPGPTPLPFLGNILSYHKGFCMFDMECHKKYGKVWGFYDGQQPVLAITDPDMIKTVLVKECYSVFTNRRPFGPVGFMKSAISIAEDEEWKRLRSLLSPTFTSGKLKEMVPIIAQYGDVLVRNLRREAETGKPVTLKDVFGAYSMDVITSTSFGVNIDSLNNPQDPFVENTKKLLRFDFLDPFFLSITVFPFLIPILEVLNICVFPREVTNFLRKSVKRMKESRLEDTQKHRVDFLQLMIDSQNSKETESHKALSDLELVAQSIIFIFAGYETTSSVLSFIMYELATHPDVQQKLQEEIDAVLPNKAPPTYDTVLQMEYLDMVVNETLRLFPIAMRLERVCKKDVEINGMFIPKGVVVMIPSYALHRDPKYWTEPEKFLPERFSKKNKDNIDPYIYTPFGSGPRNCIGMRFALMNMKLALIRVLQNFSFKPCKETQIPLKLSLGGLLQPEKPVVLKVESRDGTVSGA

logP [1]: 2.8
pH-metric solubility, Molarity [1]: 3.65 μM
pH-metric solubility, Weight/ml [1]: 1.248 μg/ml
CYP3A4 activity (CYP3A4): 107.6 % of Control Activity
CYP2D6 activity (CYP2D6): 93.3 % of Control Activity
CYP2C19 activity (CYP2C19): 24.4 % of Control Activity
inhibition of the enzyme activity of CYP2C19 (CYP2C19): 24.4%
CYP2C9 activity (CYP2C9): 91.9 % of Control Activity
CYP1A2 activity (CYP1A2): 64.6 % of Control Activity
AUC(0-t) [2, 3]: 183 ng·h/mL
C0 [2, 3]: 406 ng/mL
clearance [2, 3]: 7.17 mL/min/kg
half-life [2, 3]: 48 min
Vd ([2]; rat, plasma, Intravenous (IV), 1 mg/kg, read-out: Vdss): 0.311 L/kg
AUC(0-t) [2, 4]: 366 ng·h/mL
Cmax [2, 4]: 126 ng/mL
Tmax [2, 4]: 60 min
half-life [2, 4]: 54 min
bioavailability ([2]; rat, plasma, Oral (PO), 10 mg/kg, read-out: Bioavailability (F %)): 20%
AUC(0-t) [2, 5]: 644 ng·h/mL
Cmax [2, 5]: 152 ng/mL
Tmax [2, 5]: 30 min
half-life [2, 5]: 408 min
AUClast Ratio [2, 6]: 1.0
Cmax ratio [2, 6]: 1.0
AUClast Ratio [2, 7]: 1.8
Cmax ratio [2, 7]: 1.2
Structure (SMILES): O=C(Cc1c[nH]c2ccc(Cl)cc12)Nc1nc2ccccc2s1 [Comparative Example 1, N-(benzo[d]thiazol-2-yl)-2-(5-chloro-1H-indol-3-yl)acetamide, reference compound]
